≈ marks a conversion by molar mass, not a printed value. Read-outs that look alike come from different tables or passages of the source. Marks after values point to notes of the source that are not given here.
Tests used:
Human T-cell = Human T-cell proliferation; format: cell-based
Pfeiffer = assay: DLBCL cellular growth inhibition assay; format: cell-based; conditions: Homo sapiens
central nervous system = assay: Neurofunctional study (FOB, motor activity) in Sprague-Dawley rat; format: in vivo; conditions: male rats, 2 h after a 350 mg/kg dose
OCI-LY3 = assay: DLBCL cellular growth inhibition assay; format: cell-based; conditions: Homo sapiens
Experimental: Activation of the PI3K pathway is an important component of normal B-cell receptor (BCR) signaling and has been implicated in the pathogenesis of DLBCL. […] There was rapid modulation of phospho-AKT and phospho-PRAS40 by 30 minutes, whereas modulation of phospho-S6 was not detected until after 8 hours.

PI3K δ = PI3K δ (Homo sapiens, UniProt O00329); assay: PI3K-δ suppression level (IC90) quoted with clinical plasma concentrations
[1] = Plasma protein binding in vitro, rat; format: in vitro ADME; conditions: all concentrations tested
[2] = test system: advanced hematologic malignancies; assay: Phase 1 dose-escalation study in advanced hematologic malignancies: clinical response; format: in vivo, human
[3] = CLL/SLL, 16 treated, 11 evaluable
[4] = T-Cell Lymphoma, 7 treated, 6 evaluable

Sequence of PI3K δ (O00329 whole entry, species assumed): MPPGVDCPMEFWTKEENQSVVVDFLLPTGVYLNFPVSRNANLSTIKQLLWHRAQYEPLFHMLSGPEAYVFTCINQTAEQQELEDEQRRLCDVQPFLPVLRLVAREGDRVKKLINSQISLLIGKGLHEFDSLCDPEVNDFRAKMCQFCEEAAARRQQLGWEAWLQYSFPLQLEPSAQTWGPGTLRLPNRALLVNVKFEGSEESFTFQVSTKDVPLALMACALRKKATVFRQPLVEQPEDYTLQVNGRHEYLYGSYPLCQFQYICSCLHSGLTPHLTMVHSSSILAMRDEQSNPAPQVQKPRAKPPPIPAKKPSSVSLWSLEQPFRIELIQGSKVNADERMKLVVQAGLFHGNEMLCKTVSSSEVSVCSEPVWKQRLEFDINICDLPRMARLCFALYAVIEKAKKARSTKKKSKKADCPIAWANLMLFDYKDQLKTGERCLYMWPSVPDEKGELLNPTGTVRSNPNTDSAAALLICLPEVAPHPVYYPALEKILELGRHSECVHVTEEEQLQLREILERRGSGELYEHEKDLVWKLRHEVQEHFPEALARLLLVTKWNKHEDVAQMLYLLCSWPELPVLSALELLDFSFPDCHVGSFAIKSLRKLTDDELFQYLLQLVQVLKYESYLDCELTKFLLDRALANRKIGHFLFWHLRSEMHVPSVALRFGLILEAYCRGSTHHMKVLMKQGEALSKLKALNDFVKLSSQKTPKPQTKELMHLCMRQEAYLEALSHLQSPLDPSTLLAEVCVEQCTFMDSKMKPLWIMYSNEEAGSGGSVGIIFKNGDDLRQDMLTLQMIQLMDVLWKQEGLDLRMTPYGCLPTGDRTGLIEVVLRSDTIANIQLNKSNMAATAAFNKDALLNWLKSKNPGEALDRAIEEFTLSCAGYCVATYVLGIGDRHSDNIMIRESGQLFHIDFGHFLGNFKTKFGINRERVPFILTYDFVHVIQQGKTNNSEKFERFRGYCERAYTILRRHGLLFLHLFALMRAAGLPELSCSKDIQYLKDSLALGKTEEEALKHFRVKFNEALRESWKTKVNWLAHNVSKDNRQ
Sequence of PI3K δ (P27986 whole entry partner, species assumed): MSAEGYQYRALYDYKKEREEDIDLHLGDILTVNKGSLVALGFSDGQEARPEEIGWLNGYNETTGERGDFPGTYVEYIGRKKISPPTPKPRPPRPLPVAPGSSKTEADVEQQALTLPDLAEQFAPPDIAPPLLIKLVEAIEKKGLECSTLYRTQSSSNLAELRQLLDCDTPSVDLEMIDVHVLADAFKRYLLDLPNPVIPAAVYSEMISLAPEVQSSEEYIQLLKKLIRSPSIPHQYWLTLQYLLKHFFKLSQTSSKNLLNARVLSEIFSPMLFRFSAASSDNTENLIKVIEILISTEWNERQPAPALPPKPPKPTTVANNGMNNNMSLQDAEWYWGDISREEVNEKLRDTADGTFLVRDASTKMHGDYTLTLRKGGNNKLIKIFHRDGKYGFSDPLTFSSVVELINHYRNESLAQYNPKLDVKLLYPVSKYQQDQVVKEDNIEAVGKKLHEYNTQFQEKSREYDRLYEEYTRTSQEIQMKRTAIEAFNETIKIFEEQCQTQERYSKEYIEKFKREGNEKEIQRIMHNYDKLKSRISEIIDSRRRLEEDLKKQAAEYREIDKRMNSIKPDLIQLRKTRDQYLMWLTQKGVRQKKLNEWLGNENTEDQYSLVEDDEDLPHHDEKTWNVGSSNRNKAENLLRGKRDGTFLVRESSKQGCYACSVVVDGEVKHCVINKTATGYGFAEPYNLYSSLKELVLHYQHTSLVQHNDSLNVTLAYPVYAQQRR

What does the source list for `C[C@H](Nc1ncnc2[nH]cnc12)c1cc2cccc(Cl)c2c(=O)n1-c1ccccc1` [Compound 292]?
EC50 (Human T-cell): 0.005 to 0.01 µM; IC50 (Pfeiffer): > 50 µM; locomotor activity (central nervous system): Significant decreases; IC50 (OCI-LY3): > 50 µM; IC90 (PI3K δ): 0.361 µg/mL (≈ 0.866 µM); percent free in plasma compared with human plasma [1]: consistently higher; Any AE (25 mg BID (n = 34)): 27; Any AE, Grade 3 (25 mg BID (n = 34)): 7; Any AE, Grade 4 (25 mg BID (n = 34)): 5; New Grade 3 ALT (25 mg BID (n = 34)): 3; New Grade 3 ANC (25 mg BID (n = 34)): 2; New Grade 4 ANC (25 mg BID (n = 34)): 4; Related AE (25 mg BID (n = 34)): 18; Related Grade 3 AE (25 mg BID (n = 34)): 4/4; Related Grade 4 AE (25 mg BID (n = 34)): 4/4; new Grade >3 neutropenia (20 patients, 8-50 mg BID): 6 n; patients with AEs Grade >3 (20 patients, 8-50 mg BID): 7 patients; patients with adverse events (AEs) (20 patients, 8-50 mg BID): 13 patients; dose limiting toxicity observed to date (20 patients, 15 mg dose cohort): Grade 4 neutropenia; discontinuations due to treatment related AEs (55 patients): three; DLTs (55 patients, 8-75 mg BID): Grade 4 neutropenia (15 mg BID) and Grade 3 cellulitis (wound infection, 75 mg BID); dose-related trends in related Grade 3 or Grade 4 AEs (55 patients, 8-75 mg BID): No dose-related trends; Any AE (Safety Population (n = 55)): 46; Any AE, Grade 3 (Safety Population (n = 55)): 18; Any AE, Grade 4 (Safety Population (n = 55)): 8; New Grade 3 ALT (Safety Population (n = 55)): 5; New Grade 3 ANC (Safety Population (n = 55)): 10; New Grade 4 ANC (Safety Population (n = 55)): 5; Related AE (Safety Population (n = 55)): 31; Related Grade 3 AE (Safety Population (n = 55)): 14; Related Grade 4 AE (Safety Population (n = 55)): 6; Deaths on Study (Safety Population (n = 55), all due to disease progression): 3 n; responders responding by first assessment (within about 2 months) ([2]; B cell lymphoma, 16 out of 18 responders): 89%; Best Observed Response: CR [2, 3]: 0 n; Best Observed Response: PR [2, 3]: 6 n; Time to Response, Median (range) [2, 3]: 2.9 (1.8, 5.6) Months; Best Observed Response: SD ([2]; CLL/SLL, 16 treated, 11 evaluable, four nodal responses): 4 ^c n; Best Observed Response: CR ([2]; CTCL, T/E 10/4): 0 n; Best Observed Response: SD ([2]; CTCL, T/E 10/4): 2 n; Median Time to Response (range) ([2]; CTCL, T/E 10/4): 1.7 (—) ^ Months; Best Observed Response: PR ([2]; HL, 3 treated, 2 evaluable): 0 n; Best Observed Response: SD ([2]; HL, 3 treated, 2 evaluable): 0 n; Time to Response, Median (range) ([2]; HL, 3 treated, 2 evaluable): 1.7 (1.7, 1.7) Months; Best Observed Response: CR ([2]; HL, T/E 3/3 (Table 16)): 1 (33) n(%); Best Observed Response: Overall ([2]; HL, T/E 3/3 (Table 16)): 1 (33) n(%); Best Observed Response: PD ([2]; HL, T/E 3/3 (Table 16)): 1 (33) n(%); Best Observed Response: PR ([2]; HL, T/E 3/3 (Table 16)): 0 n(%); Best Observed Response: SD ([2]; HL, T/E 3/3 (Table 16)): 1 (33) n(%); Median Time to Rsp (Range) ([2]; HL, T/E 3/3 (Table 16)): 1.7 Months; Best Observed Response: CR ([2]; MCL, 4 treated, 3 evaluable): 0 n; Best Observed Response: PR ([2]; MCL, 4 treated, 3 evaluable): 2 n; Best Observed Response: SD ([2]; MCL, 4 treated, 3 evaluable): 0 n; Time to Response, Median (range) ([2]; MCL, 4 treated, 3 evaluable): 1.9 (1.9, 1.9) Months; responses ([2]; MCL, 11 evaluable patients, 8, 15 and 25 mg BID): 1/1; Best Observed Response: CR ([2]; MCL, T/E 9/6 (Table 16)): 1 (17) n(%); Best Observed Response: Overall ([2]; MCL, T/E 9/6 (Table 16)): 4 (67) n(%); Best Observed Response: PD ([2]; MCL, T/E 9/6 (Table 16)): 1 (17) n(%); Best Observed Response: PR ([2]; MCL, T/E 9/6 (Table 16)): 3 (50) n(%); Best Observed Response: SD ([2]; MCL, T/E 9/6 (Table 16)): 1 (17) n(%); Median Time to Rsp (Range) ([2]; MCL, T/E 9/6 (Table 16)): 1.8 (1.6-1.9) Months; Best Observed Response: CR ([2]; MM, 3 treated, 3 evaluable): 0 n; Best Observed Response: PD ([2]; MM, 3 treated, 3 evaluable): 2 n; Best Observed Response: PR ([2]; MM, 3 treated, 3 evaluable): 0 n; Best Observed Response: PD ([2]; PTCL, T/E 7/5): 3 n; Best Observed Response: SD ([2]; PTCL, T/E 7/5): 0 n; Median Time to Response (range) ([2]; PTCL, T/E 7/5): 2.3 (1.9-2.7) Months; patients with at least 50% tumor response ([2]; T cell lymphoma (2 PTCL and 1 CTCL), CT scans): 33 % of the patients; Best Observed Response: PD [2, 4]: 3 n; Time to Response, Median (range) [2, 4]: 2.4 (1.8, 3.1) Months; Best Observed Response: PD ([2]; TCL Total, T/E 17/9 (Table 15)): 4 n; Best Observed Response: PR ([2]; TCL Total, T/E 17/9 (Table 15)): 2 n; Best Observed Response: SD ([2]; TCL Total, T/E 17/9 (Table 15)): 2 n; Median Time to Response (range) ([2]; TCL Total, T/E 17/9 (Table 15)): 1.9 (1.7-2.7) Months; Best Observed Response: CR ([2]; aNHL, 5 treated, 3 evaluable): 0 n; Best Observed Response: PD ([2]; aNHL, 5 treated, 3 evaluable): 2 n; Best Observed Response: PR ([2]; aNHL, 5 treated, 3 evaluable): 0 n; Best Observed Response: CR ([2]; aNHL, T/E 13/10 (Table 16)): 0 n(%); Best Observed Response: Overall ([2]; aNHL, T/E 13/10 (Table 16)): 0 n(%); Best Observed Response: PD ([2]; aNHL, T/E 13/10 (Table 16)): 6 (60) n(%); Best Observed Response: PR ([2]; aNHL, T/E 13/10 (Table 16)): 0 n(%); Best Observed Response: SD ([2]; aNHL, T/E 13/10 (Table 16)): 4 (40) n(%); Best Observed Response: PR ([2]; iNHL, 17 treated, 13 evaluable): 7 n; Time to Response, Median (range) ([2]; iNHL, 17 treated, 13 evaluable): 1.8 (1.7, 2.8) Months; Best Observed Response: CR ([2]; iNHL, T/E 26/19 (Table 16)): 3 (16) n(%); Best Observed Response: MR (Minor Response for Waldenstrom's) ([2]; iNHL, T/E 26/19 (Table 16)): 1 (5) n(%); Best Observed Response: Overall ([2]; iNHL, T/E 26/19 (Table 16)): 13 (68) n(%); Best Observed Response: PD ([2]; iNHL, T/E 26/19 (Table 16)): 2 (11) n(%); Best Observed Response: PR ([2]; iNHL, T/E 26/19 (Table 16)): 10 (53) n(%); Best Observed Response: SD ([2]; iNHL, T/E 26/19 (Table 16)): 3 (16) n(%); Median Time to Rsp (Range) ([2]; iNHL, T/E 26/19 (Table 16)): 1.8 (1.7-4.1) Months

Reference: patent US20160113932A1, “TREATMENT OF CANCERS USING PI3 KINASE ISOFORM MODULATORS” (INFINITY PHARMACEUTICALS, INC., priority 2013, published 2016)
